Reference: article PMC6874179, “Development of Macrocycle Kinase Inhibitors for ALK2 Using Fibrodysplasia Ossificans Progressiva‐Derived Endothelial Cells” (JBMR Plus, 2019)

Tests used:
RPS6KA1 = target: T1, RPS6KA1 (Homo sapiens, UniProt Q15418); test: Proqinase Kinase profiling; assay type: biochemical; conditions: read-out: % inhibition at 100nM
T1 construct: purchased DiscoverX

STK39 = target: T2, STK39 (Homo sapiens, UniProt Q9UEW8); test: Proqinase Kinase profiling; assay type: biochemical; conditions: read-out: % inhibition at 100nM
T2 construct: purchased DiscoverX

KIT_D816H = target: T3, KIT_D816H (Homo sapiens, UniProt P10721, D816H); test: Proqinase Kinase profiling; assay type: biochemical; conditions: read-out: % inhibition at 100nM
T3 construct: purchased DiscoverX

LRRK2_G2019S = target: T4, LRRK2_G2019S (Homo sapiens, UniProt Q5S007, G2019S); test: Proqinase Kinase profiling; assay type: biochemical; conditions: read-out: % inhibition at 100nM
T4 construct: purchased DiscoverX

ABL1_M351T = target: T5, ABL1_M351T (Homo sapiens, UniProt P00519, M351T); test: Proqinase Kinase profiling; assay type: biochemical; conditions: read-out: % inhibition at 100nM
T5 construct: purchased DiscoverX

MET_Y1230H = target: T6, MET_Y1230H (Homo sapiens, UniProt P08581, Y1230H); test: Proqinase Kinase profiling; assay type: biochemical; conditions: read-out: % inhibition at 100nM
T6 construct: purchased DiscoverX

CDK7_cyclinH_MAT1 = target: T7, CDK7_cyclinH_MAT1 (Homo sapiens, UniProt P50613); test: Proqinase Kinase profiling; assay type: biochemical; conditions: read-out: % inhibition at 100nM
T7 construct: purchased DiscoverX

STK25 = target: T8, STK25 (Homo sapiens, UniProt O00506); test: Proqinase Kinase profiling; assay type: biochemical; conditions: read-out: % inhibition at 100nM
T8 construct: purchased DiscoverX

AKT2 = target: T9, AKT2 (Homo sapiens, UniProt P31751); test: Proqinase Kinase profiling; assay type: biochemical; conditions: read-out: % inhibition at 100nM
T9 construct: purchased DiscoverX

ACVR1 = target: T10, ACVR1 (Homo sapiens, UniProt Q04771); test: Proqinase Kinase profiling; assay type: biochemical; conditions: read-out: % inhibition at 100nM
T10 construct: purchased DiscoverX

AKT1 = target: T11, AKT1 (Homo sapiens, UniProt P31749); test: Proqinase Kinase profiling; assay type: biochemical; conditions: read-out: % inhibition at 100nM
T11 construct: purchased DiscoverX
T11 sequence (P31749 whole entry): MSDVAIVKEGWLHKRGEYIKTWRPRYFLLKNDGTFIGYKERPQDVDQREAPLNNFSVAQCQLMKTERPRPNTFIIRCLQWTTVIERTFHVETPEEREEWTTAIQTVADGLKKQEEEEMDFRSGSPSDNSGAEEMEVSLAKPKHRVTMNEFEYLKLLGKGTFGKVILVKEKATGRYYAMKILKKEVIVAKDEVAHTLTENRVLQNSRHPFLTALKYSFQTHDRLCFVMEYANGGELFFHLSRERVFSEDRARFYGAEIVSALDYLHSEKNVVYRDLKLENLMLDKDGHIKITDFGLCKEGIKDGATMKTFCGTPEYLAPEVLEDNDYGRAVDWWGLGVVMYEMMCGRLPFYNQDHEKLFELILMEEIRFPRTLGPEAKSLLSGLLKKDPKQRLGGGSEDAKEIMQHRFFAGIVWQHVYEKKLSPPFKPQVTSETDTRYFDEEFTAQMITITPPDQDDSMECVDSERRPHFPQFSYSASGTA

SRPK3 = target: T12, SRPK3 (Homo sapiens, UniProt Q9UPE1); test: Proqinase Kinase profiling; assay type: biochemical; conditions: read-out: % inhibition at 100nM
T12 construct: purchased DiscoverX

ALK5 = target: T13, ALK5 (Homo sapiens, UniProt P36897); test: DiscoverX Kd determination; assay type: binding
T13 construct: T7 phage fusion (or DNA tag for qPCR if made in HEK-293); purchased DiscoverX; host or cells: E. coli (T7 phage) or HEK-293
Procedure: (§1) DiscoverX Kd determination: For most assays, kinase-tagged T7 phage strains were prepared in an E. coli host derived from the BL21 strain. E. coli were grown to log-phase and infected with T7 phage and incubated with shaking at 32°C until lysis. The lysates were centrifuged and filtered to remove cell debris. The remaining kinases were produced in HEK-293 cells and subsequently tagged with DNA for qPCR detection. […] The liganded beads were blocked with excess biotin and washed with blocking buffer (SeaBlock (Pierce), 1% BSA, 0.05% Tween 20, 1 mM DTT) to remove unbound ligand and to reduce non-specific binding. […] Kds were determined using an 11-point 3-fold compound dilution series with three DMSO control points. […] The compounds were then diluted directly into the assays such that the final concentration of DMSO was 0.9%. All reactions performed in polypropylene 384-well plate. Each was a final volume of 0.02 ml. […] The kinase concentration in the eluates was measured by qPCR. An 11-point 3-fold serial dilution of each test compound was prepared in 100% DMSO at 100x final test concentration and subsequently diluted to 1x in the assay (final DMSO concentration = 1%). Most Kds were determined using a compound top concentration = 30.000 nM. […] Binding constants (Kds) were calculated with a standard dose-response curve using the Hill equation: Response = Background + Signal – Background 1 + (KdHill Slope / DoseHill Slope). The Hill Slope was set to -1. Curves were fitted using a non-linear least square fit with the Levenberg-Marquardt algorithm.

ALK3 = target: T14, ALK3 (Homo sapiens, UniProt P36894); test: DiscoverX Kd determination; assay type: binding
T14 construct: T7 phage fusion (or DNA tag for qPCR if made in HEK-293); purchased DiscoverX; host or cells: E. coli (T7 phage) or HEK-293
Procedure: as §1

ALK1 = target: T15, ALK1 (Homo sapiens, UniProt P37023); test: DiscoverX Kd determination; assay type: binding
T15 construct: T7 phage fusion (or DNA tag for qPCR if made in HEK-293); purchased DiscoverX; host or cells: E. coli (T7 phage) or HEK-293
Procedure: as §1

ALK2 = target: T16, ALK2 (Homo sapiens, UniProt Q04771); test: DiscoverX Kd determination; assay type: binding
T16 construct: T7 phage fusion (or DNA tag for qPCR if made in HEK-293); purchased DiscoverX; host or cells: E. coli (T7 phage) or HEK-293
Procedure: as §1

ALK4 = target: T17, ALK4 (Homo sapiens, UniProt P36896); test: DiscoverX Kd determination; assay type: binding
T17 construct: T7 phage fusion (or DNA tag for qPCR if made in HEK-293); purchased DiscoverX; host or cells: E. coli (T7 phage) or HEK-293
Procedure: as §1

EPHA1 = target: T18, EPHA1 (Homo sapiens, UniProt P21709); test: Proqinase Kinase profiling; assay type: biochemical; conditions: read-out: % inhibition at 100nM
T18 construct: purchased DiscoverX

MARK4 = target: T19, MARK4 (Homo sapiens, UniProt Q96L34); test: Proqinase Kinase profiling; assay type: biochemical; conditions: read-out: % inhibition at 100nM
T19 construct: purchased DiscoverX

PIM1 = target: T20, PIM1 (Homo sapiens, UniProt P11309); test: Proqinase Kinase profiling; assay type: biochemical; conditions: read-out: % inhibition at 100nM
T20 construct: purchased DiscoverX

ABL2 = target: T21, ABL2 (Homo sapiens, UniProt P42684); test: Proqinase Kinase profiling; assay type: biochemical; conditions: read-out: % inhibition at 100nM
T21 construct: purchased DiscoverX

PRKACA = target: T22, PRKACA (Homo sapiens, UniProt P17612); test: Proqinase Kinase profiling; assay type: biochemical; conditions: read-out: % inhibition at 100nM
T22 construct: purchased DiscoverX

TYRO3 = target: T23, TYRO3 (Homo sapiens, UniProt Q06418); test: Proqinase Kinase profiling; assay type: biochemical; conditions: read-out: % inhibition at 100nM
T23 construct: purchased DiscoverX

PLK3 = target: T24, PLK3 (Homo sapiens, UniProt Q9H4B4); test: Proqinase Kinase profiling; assay type: biochemical; conditions: read-out: % inhibition at 100nM
T24 construct: purchased DiscoverX
T24 sequence (Q9H4B4 whole entry): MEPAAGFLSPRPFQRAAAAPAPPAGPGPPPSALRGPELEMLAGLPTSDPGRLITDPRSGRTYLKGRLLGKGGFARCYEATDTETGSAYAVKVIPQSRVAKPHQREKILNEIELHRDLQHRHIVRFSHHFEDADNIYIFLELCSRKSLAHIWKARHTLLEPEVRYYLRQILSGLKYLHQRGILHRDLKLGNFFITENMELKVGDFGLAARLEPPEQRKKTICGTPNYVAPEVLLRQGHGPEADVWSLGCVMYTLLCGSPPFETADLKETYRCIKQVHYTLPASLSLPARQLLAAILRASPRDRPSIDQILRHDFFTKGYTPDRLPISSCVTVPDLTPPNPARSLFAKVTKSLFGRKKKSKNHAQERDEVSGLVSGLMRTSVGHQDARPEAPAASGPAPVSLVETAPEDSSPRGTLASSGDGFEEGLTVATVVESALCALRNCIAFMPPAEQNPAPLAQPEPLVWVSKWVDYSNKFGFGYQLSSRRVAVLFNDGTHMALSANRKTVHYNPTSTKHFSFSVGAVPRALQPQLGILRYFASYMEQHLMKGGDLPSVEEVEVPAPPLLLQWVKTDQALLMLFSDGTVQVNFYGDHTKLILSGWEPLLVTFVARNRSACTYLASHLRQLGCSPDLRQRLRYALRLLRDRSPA

MINK1 = target: T25, MINK1 (Homo sapiens, UniProt Q8N4C8); test: Proqinase Kinase profiling; assay type: biochemical; conditions: read-out: % inhibition at 100nM
T25 construct: purchased DiscoverX

CDK5_p25 = target: T26, CDK5_p25 (Homo sapiens, UniProt Q00535); test: Proqinase Kinase profiling; assay type: biochemical; conditions: read-out: % inhibition at 100nM
T26 construct: purchased DiscoverX

EGFR_T790M = target: T27, EGFR_T790M (Homo sapiens, UniProt P00533, T790M); test: Proqinase Kinase profiling; assay type: biochemical; conditions: read-out: % inhibition at 100nM
T27 construct: purchased DiscoverX
T27 sequence (P00533 25-1210 T790M): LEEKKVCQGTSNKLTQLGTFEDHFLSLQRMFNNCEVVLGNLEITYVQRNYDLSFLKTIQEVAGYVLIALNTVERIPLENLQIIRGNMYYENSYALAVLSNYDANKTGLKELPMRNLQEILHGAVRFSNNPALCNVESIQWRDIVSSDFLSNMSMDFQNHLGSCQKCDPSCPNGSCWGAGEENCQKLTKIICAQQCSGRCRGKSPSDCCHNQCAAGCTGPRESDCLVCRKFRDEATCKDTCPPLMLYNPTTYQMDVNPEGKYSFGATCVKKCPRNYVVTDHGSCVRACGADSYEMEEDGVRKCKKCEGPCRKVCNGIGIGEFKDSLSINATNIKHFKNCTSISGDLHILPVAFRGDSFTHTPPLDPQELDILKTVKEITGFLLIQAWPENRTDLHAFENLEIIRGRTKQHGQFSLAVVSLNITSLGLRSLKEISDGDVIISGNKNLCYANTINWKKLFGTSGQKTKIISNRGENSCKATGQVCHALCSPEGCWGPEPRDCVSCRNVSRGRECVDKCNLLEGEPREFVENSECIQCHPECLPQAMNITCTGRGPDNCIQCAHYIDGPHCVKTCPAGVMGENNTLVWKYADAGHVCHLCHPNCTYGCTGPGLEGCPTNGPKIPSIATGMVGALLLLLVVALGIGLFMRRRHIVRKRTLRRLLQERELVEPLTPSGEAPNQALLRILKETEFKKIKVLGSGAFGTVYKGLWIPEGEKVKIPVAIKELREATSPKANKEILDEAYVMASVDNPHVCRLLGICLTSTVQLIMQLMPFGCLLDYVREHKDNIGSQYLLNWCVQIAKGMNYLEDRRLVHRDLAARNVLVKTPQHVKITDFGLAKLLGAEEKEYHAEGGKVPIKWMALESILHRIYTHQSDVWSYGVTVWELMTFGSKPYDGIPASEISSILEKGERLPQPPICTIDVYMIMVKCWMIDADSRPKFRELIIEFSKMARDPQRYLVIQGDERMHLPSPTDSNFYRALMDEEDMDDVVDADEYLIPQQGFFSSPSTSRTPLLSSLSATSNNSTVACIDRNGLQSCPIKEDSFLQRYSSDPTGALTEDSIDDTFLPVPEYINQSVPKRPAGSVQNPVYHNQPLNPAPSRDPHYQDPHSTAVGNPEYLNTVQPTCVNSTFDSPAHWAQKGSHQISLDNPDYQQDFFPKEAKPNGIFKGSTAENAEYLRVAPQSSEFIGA

NLK = target: T28, NLK (Homo sapiens, UniProt Q9UBE8); test: Proqinase Kinase profiling; assay type: biochemical; conditions: read-out: % inhibition at 100nM
T28 construct: purchased DiscoverX

IRAK1 = target: T29, IRAK1 (Homo sapiens, UniProt P51617); test: Proqinase Kinase profiling; assay type: biochemical; conditions: read-out: % inhibition at 100nM
T29 construct: purchased DiscoverX
T29 sequence (P51617 whole entry): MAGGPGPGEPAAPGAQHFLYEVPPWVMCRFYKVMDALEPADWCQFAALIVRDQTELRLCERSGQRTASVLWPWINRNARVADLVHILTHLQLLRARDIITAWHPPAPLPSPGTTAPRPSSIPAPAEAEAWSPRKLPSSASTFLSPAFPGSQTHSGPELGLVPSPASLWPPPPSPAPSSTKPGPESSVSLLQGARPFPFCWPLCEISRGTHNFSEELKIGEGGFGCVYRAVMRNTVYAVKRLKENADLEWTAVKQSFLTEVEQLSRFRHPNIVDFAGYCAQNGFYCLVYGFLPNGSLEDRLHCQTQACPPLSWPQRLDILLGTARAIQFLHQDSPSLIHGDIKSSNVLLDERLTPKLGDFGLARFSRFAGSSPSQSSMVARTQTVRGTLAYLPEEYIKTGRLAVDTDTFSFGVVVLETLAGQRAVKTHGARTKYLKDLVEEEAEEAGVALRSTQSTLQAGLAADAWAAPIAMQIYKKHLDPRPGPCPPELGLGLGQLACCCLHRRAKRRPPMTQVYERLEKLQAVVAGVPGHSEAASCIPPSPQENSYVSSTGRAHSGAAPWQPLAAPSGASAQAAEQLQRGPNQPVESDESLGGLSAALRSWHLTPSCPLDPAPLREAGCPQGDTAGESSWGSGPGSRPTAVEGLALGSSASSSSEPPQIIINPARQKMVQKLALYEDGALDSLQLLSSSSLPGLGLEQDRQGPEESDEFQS

KIT_V559D_T670I = target: T30, KIT_V559D_T670I (Homo sapiens, UniProt P10721, T670I/V559D); test: Proqinase Kinase profiling; assay type: biochemical; conditions: read-out: % inhibition at 100nM
T30 construct: purchased DiscoverX
T30 sequence (P10721 26-976 V559D/T670I): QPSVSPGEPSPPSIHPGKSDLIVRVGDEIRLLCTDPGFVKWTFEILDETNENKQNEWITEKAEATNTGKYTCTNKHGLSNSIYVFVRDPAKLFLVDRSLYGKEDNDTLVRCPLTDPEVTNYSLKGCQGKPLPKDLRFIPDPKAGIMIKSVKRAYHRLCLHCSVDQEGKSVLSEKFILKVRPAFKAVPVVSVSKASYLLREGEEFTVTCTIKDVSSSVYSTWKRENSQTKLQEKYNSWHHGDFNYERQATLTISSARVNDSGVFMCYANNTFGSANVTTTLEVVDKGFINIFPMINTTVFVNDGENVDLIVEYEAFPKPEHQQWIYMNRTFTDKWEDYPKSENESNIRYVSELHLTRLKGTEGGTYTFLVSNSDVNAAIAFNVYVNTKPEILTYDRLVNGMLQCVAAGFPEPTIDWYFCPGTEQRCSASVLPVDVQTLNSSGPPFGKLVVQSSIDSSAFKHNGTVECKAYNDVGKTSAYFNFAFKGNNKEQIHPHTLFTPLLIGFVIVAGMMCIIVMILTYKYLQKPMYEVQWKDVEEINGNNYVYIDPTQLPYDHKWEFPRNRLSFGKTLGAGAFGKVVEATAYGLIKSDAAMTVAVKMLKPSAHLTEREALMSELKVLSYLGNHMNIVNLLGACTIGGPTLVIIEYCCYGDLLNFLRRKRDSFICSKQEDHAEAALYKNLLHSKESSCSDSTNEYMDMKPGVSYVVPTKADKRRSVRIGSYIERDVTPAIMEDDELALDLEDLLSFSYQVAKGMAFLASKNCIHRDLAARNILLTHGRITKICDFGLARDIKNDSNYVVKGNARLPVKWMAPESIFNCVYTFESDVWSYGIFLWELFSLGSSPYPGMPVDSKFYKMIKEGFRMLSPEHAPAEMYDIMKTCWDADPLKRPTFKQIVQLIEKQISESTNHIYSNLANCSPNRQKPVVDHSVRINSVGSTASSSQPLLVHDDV

TEK = target: T31, TEK (Homo sapiens, UniProt Q02763); test: Proqinase Kinase profiling; assay type: biochemical; conditions: read-out: % inhibition at 100nM
T31 construct: purchased DiscoverX
T31 sequence (Q02763 23-1124): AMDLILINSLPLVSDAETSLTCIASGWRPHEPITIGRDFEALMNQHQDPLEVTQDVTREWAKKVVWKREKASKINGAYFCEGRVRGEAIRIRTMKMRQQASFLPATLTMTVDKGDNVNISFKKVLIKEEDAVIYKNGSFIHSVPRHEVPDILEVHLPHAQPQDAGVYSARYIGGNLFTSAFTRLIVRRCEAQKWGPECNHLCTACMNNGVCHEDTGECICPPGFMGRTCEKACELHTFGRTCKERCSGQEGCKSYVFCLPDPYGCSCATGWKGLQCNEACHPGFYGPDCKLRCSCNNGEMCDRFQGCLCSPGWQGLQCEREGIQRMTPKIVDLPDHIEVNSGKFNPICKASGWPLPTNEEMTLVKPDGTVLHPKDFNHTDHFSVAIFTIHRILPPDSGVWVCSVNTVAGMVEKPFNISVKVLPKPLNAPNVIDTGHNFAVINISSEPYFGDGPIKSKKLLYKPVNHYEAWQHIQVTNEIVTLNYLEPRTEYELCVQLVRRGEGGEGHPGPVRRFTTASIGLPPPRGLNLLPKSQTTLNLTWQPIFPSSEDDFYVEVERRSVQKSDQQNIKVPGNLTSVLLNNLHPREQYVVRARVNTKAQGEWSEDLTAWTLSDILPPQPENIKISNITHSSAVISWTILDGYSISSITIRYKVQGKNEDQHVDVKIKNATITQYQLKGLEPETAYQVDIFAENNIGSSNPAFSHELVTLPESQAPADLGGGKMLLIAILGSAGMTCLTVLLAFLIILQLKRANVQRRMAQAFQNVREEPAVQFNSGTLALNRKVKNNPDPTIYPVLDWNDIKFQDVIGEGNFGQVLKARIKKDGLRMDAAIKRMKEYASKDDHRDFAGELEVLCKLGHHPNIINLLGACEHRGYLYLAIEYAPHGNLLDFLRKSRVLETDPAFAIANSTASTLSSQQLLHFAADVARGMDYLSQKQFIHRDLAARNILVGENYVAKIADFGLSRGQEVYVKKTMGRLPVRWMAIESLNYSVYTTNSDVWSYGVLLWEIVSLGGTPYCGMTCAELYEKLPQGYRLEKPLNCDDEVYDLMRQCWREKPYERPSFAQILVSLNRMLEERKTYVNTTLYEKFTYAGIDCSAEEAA

CDK4_cyclinD3 = target: T32, CDK4_cyclinD3 (Homo sapiens, UniProt P11802); test: Proqinase Kinase profiling; assay type: biochemical; conditions: read-out: % inhibition at 100nM
T32 construct: purchased DiscoverX

AKT3 = target: T33, AKT3 (Homo sapiens, UniProt Q9Y243); test: Proqinase Kinase profiling; assay type: biochemical; conditions: read-out: % inhibition at 100nM
T33 construct: purchased DiscoverX

MET = target: T34, MET (Homo sapiens, UniProt P08581); test: Proqinase Kinase profiling; assay type: biochemical; conditions: read-out: % inhibition at 100nM
T34 construct: purchased DiscoverX

| SMILES | inhibition at 0.1 µM (RPS6KA1) [%] | inhibition at 0.1 µM (STK39) [%] | inhibition at 0.1 µM (KIT_D816H) [%] | inhibition at 0.1 µM (LRRK2_G2019S) [%] | inhibition at 0.1 µM (ABL1_M351T) [%] | inhibition at 0.1 µM (MET_Y1230H) [%] | inhibition at 0.1 µM (CDK7_cyclinH_MAT1) [%] | inhibition at 0.1 µM (STK25) [%] | inhibition at 0.1 µM (AKT2) [%] | inhibition at 0.1 µM (ACVR1) [%] | inhibition at 0.1 µM (AKT1) [%] | inhibition at 0.1 µM (SRPK3) [%] | Kd (ALK5) [nM] | Kd (ALK3) [nM] | Kd (ALK1) [nM] | Kd (ALK2) [nM] | Kd (ALK4) [nM] | inhibition at 0.1 µM (EPHA1) [%] | inhibition at 0.1 µM (MARK4) [%] | inhibition at 0.1 µM (PIM1) [%] | other results |
| --- | --- | --- | --- | --- | --- | --- | --- | --- | --- | --- | --- | --- | --- | --- | --- | --- | --- | --- | --- | --- | --- |
| Clc1cc2cc(c1)-c1cnn3ccc(nc13)NCCOCCO2 [OD36] | 9 | 0 | 32 | 61 | 16 | -3 | 0 | 1 | 2 | 95 | 4 | 9 | 3000 | 3000 | 90 | 37 | 3000 | 6 | 13 | 29 | inhibition at 0.1 µM (ABL2): 3%; inhibition at 0.1 µM (PRKACA): -3%; inhibition at 0.1 µM (TYRO3): 5%; inhibition at 0.1 µM (PLK3): -4%; inhibition at 0.1 µM (MINK1): 5%; inhibition at 0.1 µM (CDK5_p25): 10%; inhibition at 0.1 µM (EGFR_T790M): -14%; inhibition at 0.1 µM (NLK): 33%; inhibition at 0.1 µM (IRAK1): 9%; inhibition at 0.1 µM (KIT_V559D_T670I): 7%; inhibition at 0.1 µM (TEK): 6%; inhibition at 0.1 µM (CDK4_cyclinD3): -30%; inhibition at 0.1 µM (AKT3): -1%; inhibition at 0.1 µM (MET): 3% |
| Cc1cc2cc(c1)-c1cnn3ccc(nc13)NCCNC(=O)CCN(C)C2 [OD52] | 10 | 5 | -14 | 39 | -7 | -20 | -6 | 2 | -9 | 90 | -4 | -5 | 850 | 1300 | 13 | 9.6 | 260 | -1 | -4 | -3 | inhibition at 0.1 µM (ABL2): -23%; inhibition at 0.1 µM (PRKACA): -7%; inhibition at 0.1 µM (TYRO3): -7%; inhibition at 0.1 µM (PLK3): -8%; inhibition at 0.1 µM (MINK1): -11%; inhibition at 0.1 µM (CDK5_p25): -2%; inhibition at 0.1 µM (EGFR_T790M): -17%; inhibition at 0.1 µM (NLK): 1%; inhibition at 0.1 µM (IRAK1): 16%; inhibition at 0.1 µM (KIT_V559D_T670I): -8%; inhibition at 0.1 µM (TEK): -7%; inhibition at 0.1 µM (CDK4_cyclinD3): -5%; inhibition at 0.1 µM (AKT3): 2%; inhibition at 0.1 µM (MET): -5% |
